Measured values: patent US11306095B2 (EAST CHINA UNIVERSITY OF SCIENCE AND TECHNOLOGY, priority 2015, dated 2022)
Values after ≈ are worked out from the molar mass of the structure shown. Read-outs that look alike come from different tables or passages of the source.

Legend:
[1] = biological target: T1, Wild type EGFR (Homo sapiens, UniProt P00533); experiment: Kinase activity test (FRET), wild type EGFR; format: biochemical
T1 construct: purchased Invitrogen PV3872
Method: (§1) EGFR-TK catalyses transfer of one phosphate group of adenosine triphosphate (ATP) to polypeptide substrate, poly(Glu, Tyr)4:1, which is labeled with two fluorescent groups coumarin and fluorescein.
(§2) 2.5 μL of Test Compounds, 5 μL Kinase/Peptide Substrate Mixture, 2.5 μL ATP Solution were added into a 384-well plate, and the 10 μL of reaction system was shaken for 30 s and incubated at room temperature for 1 h. 5 μL of Development Solution was added and the 15 μL of reaction system was shaken for 30 s, and incubated at room temperature for 1 h. […] The inhibitory rates of the compounds at 7 concentration gradients were determined and the IC50 value for each compound was calculated by Origin 8.0 fitting curve.
(§3) 10 concentration gradients from 5.1×10^−11 mol/L to 1.0×10^−6 mol/L were set for all compounds to be tested.
(§4) Compounds were diluted in DMSO for three times from 5.1×10^−9 M to 1×10^−4 M. 4 μL of the compound was dissolved in 96 μL of water to obtain a 4× compound solution. […] The 10 μL kinase reaction consisted of 2.5 μL compound solution, 5 μL kinase/peptide mix, 2.5 μL ATP solution. […] 5 μL of phosphorylated peptide solution, instead of the kinase/peptide mixture, was used as a 100% phosphorylation control. […] The plates were thoroughly mixed and incubated at room temperature for 1.5 hours. 5 μL of Development Solution was added into each well and then incubated for another 1 hour at room temperature, unphosphorylated peptides were cleaved during this period. Finally, 5 μL Stop Reagent was added to quench the reaction. The plates were measured with EnVision Multilabel Reader (Perkin Elmer). The experimental data were calculated using GraphPad Prism version 4.0. Each experiment was repeated more than 3 times.

[2] = biological target: T2, EGFR-L858R/T790M (Homo sapiens, UniProt P00533, L858R/T790M); experiment: Kinase activity test (FRET), EGFR T790M/L858R; format: biochemical
T2 construct: purchased Invitrogen PV4879
T2 sequence (P00533 25-1210 T790M/L858R): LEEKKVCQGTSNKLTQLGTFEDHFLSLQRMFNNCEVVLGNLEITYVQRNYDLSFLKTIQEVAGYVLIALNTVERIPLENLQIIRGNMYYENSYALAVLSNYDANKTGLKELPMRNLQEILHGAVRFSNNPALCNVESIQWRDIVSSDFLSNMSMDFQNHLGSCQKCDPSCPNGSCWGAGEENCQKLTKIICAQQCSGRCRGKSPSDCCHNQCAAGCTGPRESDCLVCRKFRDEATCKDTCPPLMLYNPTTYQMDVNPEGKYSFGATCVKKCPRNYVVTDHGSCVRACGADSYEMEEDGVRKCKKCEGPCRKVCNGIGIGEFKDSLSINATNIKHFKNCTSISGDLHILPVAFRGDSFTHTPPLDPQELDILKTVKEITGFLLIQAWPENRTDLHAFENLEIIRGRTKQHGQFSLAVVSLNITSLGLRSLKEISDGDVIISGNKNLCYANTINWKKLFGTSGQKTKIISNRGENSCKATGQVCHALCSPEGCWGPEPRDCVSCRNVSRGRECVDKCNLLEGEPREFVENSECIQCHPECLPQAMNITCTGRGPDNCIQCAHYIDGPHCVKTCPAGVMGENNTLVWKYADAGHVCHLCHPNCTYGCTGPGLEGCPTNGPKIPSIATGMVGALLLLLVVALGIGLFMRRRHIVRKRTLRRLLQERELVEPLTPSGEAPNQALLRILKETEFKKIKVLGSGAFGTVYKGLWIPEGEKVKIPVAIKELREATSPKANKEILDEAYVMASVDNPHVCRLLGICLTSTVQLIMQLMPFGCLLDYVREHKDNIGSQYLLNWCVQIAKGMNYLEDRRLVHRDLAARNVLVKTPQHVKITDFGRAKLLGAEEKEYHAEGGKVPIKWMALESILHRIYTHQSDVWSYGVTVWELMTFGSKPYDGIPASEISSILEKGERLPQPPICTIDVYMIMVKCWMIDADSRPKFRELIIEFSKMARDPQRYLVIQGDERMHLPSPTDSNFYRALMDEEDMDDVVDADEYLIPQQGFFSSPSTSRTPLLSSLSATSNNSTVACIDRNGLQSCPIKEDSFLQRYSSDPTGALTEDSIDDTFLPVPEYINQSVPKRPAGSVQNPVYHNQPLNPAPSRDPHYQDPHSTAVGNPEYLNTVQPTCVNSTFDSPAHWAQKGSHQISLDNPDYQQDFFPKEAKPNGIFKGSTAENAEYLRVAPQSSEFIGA
Method: as §1, §2, §3, §4

[3] = tested on: H1975 cells (EGFR L858R/T790M); experiment: Inhibitory activity on cell proliferation, H1975; format: cell-based; conditions: Homo sapiens, NCI-H1975
Method: (§5) Cell proliferation activity was assessed by MTS assay. Cells were exposed to processing conditions for 72 hours and the number of cells used in each experiment for each cell line was adjusted based on absorbance values (absorbance values at 490 nm, 1.3-2.2). Six concentration gradients (0.1 nM-10 μM) were set for the compounds to be tested, wherein at least 6 sets of parallel controls for each concentration were used.
(§6) H1975, A431 cells were cultured in corresponding media, and cells were passaged at least twice after resuscitation and then used for experiments. Cells at Log phase were trypsinized and resuspended in culture medium. H1975 (1000 cells per well), A431 (2000 cells per well) were seeded in 96-well plates in a volume of 100 μL; and 6 sets of parallel controls and 7 columns were set. The plate was placed in a 37° C. 5% CO2 incubator overnight. Compounds were dissolved in DMSO to a concentration of […], and then the concentration was gradually diluted to 10 μM, 1 μM, 0.1 μM, 0.01 μM, 0.001 μM, 0.0001 μM per liter, respectively. 2 μL of the compound solution was added to 998 μL of medium, and the mixture was thoroughly mixed. 100 μL of the mixture was added to a 96-well plate. […] After culturing for 68 hours, 20 μL of MTT (5 mg/mL) was added. After 4 hours, the supernatant was discarded and 150 μL of DMSO was added. After shaking for 10 minutes, the plate was read with Synergy HT (Bio TeK) (OD490). Data were calculated using GraphPad Prism version 4.0 and IC50 values were obtained using a non-linear regression model of dose response curve.

[4] = tested on: A431 cells (EGFR wild type); experiment: Inhibitory activity on cell proliferation, A431; format: cell-based; conditions: Homo sapiens, A-431
Method: as §5, §6

[5] = Determination of solubility in water (PBS 20 mM, pH 6.8); format: physicochemical; conditions: PBS buffer, aqueous buffer, thermodynamic from solid
Method: The suspension was filtered through a 0.22 μm PVDF filter, and then diluted to an appropriate concentration with methanol (v=50%) and PBS (v=50%), and the absorbance was measured by a UV spectrophotometer. About 3 mg of compound was accurately weighed, and methanol was added for preparing a stock solution of 1 mg/mL. The above stock solution was taken and prepared into a solution at concentrations of 0.05, 0.04, 0.03, 0.02 and 0.01 mg/mL, respectively, PBS solution (v=50%) was added and the absorbance value was measured. Concentration c (mg/mL) as horizontal ordinate vs absorbance A as longitudinal coordinate was plotted, and a line was fitted for obtaining a standard curve (correlation coefficient greater than 0.998). The solubility of a compound in water was calculated from the standard curve.

[6] = Compound 53 before and after resolution, read-out: Inhibitory IC50 means (nM) ± SD value on tyrosine kinase activity EGFR
[7] = Compound 53 before and after resolution, read-out: Inhibitory IC50 means (nM) ± SD value on tyrosine kinase activity EGFR/T790M/L858R
[8] = Compound 53 before and after resolution, read-out: Inhibitory IC50 means (μM) ± SD value on tumor cell growth activity NCI-H1975
[9] = Compound 53 before and after resolution, read-out: Inhibitory IC50 means (μM) ± SD value on tumor cell growth activity A431
[10] = wild type EGFR, read-out: Inhibitory activity of EGFR on kinase (IC50, nM) WT
[11] = EGFR T790M/L858R, read-out: Inhibitory activity of EGFR on kinase (IC50, nM) T790M/L858R
[12] = H1975, 72 hours, read-out: Inhibitory activity on proliferation of cells (IC50, μM) H1975
[13] = A431, 72 hours, read-out: Inhibitory activity on proliferation of cells (IC50, μM) A431
[14] = pH 6.8, 20 mM PBS, read-out: Solubility (pH 6.8, g/mL)
[15] = wild type EGFR, read-out: Inhibitory activity of EGFR on kinase (IC50) WT
[16] = EGFR T790M/L858R, read-out: Inhibitory activity of EGFR on kinase (IC50) T790M/L858R

T1 sequence (P00533 25-1210): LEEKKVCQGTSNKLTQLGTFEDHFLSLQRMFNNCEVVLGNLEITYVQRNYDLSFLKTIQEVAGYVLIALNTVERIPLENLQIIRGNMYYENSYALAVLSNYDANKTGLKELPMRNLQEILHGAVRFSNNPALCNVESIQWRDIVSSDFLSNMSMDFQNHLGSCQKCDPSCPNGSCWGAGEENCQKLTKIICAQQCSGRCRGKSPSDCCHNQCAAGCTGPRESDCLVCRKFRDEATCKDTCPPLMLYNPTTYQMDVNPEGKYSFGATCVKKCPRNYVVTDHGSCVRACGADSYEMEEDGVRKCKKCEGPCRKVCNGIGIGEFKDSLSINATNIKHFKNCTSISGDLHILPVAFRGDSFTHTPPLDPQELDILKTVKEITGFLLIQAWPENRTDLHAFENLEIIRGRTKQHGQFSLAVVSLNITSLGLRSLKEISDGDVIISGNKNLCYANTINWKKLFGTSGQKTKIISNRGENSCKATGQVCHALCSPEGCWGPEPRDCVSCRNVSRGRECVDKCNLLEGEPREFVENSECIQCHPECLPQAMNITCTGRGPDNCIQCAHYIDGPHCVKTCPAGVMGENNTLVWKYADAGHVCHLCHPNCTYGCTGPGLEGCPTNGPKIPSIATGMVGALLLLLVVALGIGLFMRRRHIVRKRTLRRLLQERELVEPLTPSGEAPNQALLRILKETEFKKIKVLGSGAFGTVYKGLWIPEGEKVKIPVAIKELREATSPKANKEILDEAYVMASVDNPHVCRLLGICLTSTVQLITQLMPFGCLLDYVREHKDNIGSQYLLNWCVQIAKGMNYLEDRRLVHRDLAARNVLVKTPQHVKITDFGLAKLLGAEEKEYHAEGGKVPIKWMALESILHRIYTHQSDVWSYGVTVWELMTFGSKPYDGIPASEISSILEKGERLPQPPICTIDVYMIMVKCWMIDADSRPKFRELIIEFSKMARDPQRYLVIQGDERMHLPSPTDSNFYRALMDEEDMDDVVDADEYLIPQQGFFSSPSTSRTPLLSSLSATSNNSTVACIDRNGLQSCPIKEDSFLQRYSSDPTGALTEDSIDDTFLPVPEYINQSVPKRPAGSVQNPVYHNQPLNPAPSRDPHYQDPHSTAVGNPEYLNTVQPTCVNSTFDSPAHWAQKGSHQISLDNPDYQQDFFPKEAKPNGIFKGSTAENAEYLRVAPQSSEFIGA

SMILES | IC50 [1, 10] [nM] | IC50 [2, 11] [nM] | IC50 [3, 12] [µM] | IC50 [4, 13] [µM] | solubility [5, 14] [µg/mL] | also measured
C=CC(=O)N1CCC[C@@H](Cn2c(=O)c(-c3ccccc3)nc3cnc(Nc4ccc(N5CCN(C)CC5)cc4OC)nc32)C1 [53-1 (R)] |  |  |  |  |  | IC50 [1, 6]: 273 ± 38 nM; IC50 [2, 7]: 295 ± 85 nM; IC50 [3, 8]: > 10 µM; IC50 [4, 9]: 5.31 ± 1.04 µM
C=CC(=O)N1CCC[C@H](Cn2c(=O)c(-c3ccccc3)nc3cnc(Nc4ccc(N5CCN(C)CC5)cc4OC)nc32)C1 [53-2 (S)] |  |  |  |  |  | IC50 [1, 6]: 8 ± 0.8 nM; IC50 [2, 7]: 15.2 ± 2.3 nM; IC50 [3, 8]: 0.062 ± 0.012 µM; IC50 [4, 9]: > 10 µM
C=CC(=O)N1CC[C@H](n2c(=O)cnc3cnc(Nc4ccc(N5CCN(C)CC5)cc4OC)nc32)C1 [Compound 1] | 251 | 129 | 12.2 | 13.8 | 1280 (≈ 2610 µM) | 
C=CC(=O)N1CC[C@@H](n2c(=O)cnc3cnc(Nc4ccc(N5CCN(C)CC5)cc4OC)nc32)C1 [Compound 2] |  |  | 18.2 | 89.6 | 11100 (≈ 22600 µM) | IC50 [1, 15]: > 10000 nM; IC50 [2, 16]: > 10000 nM
C=CC(=O)N1CCC[C@H](n2c(=O)cnc3cnc(Nc4ccc(N5CCN(C)CC5)cc4OC)nc32)C1 [Compound 3] |  |  | 33.7 | 60.6 | > 11400 | IC50 [1, 15]: > 10000 nM; IC50 [2, 16]: > 10000 nM
C=CC(=O)Nc1cccc(-n2c(=O)cnc3cnc(Nc4ccc(N5CCN(C)CC5)c(OC)c4)nc32)c1 [Compound 4] | 4.5 |  | 0.009 | 0.94 |  | IC50 ([2]; read-out: IC50 of inhibitory activity on EGFR-T790M/L858R kinase): 3.9 nM; IC50 ([3]; H1975 (EGFR-T790M/L858R), read-out: IC50 of inhibiting proliferation of H1975 cells): 0.009 µM; solubility ([5]; 20 mM phosphate buffer, pH 6.8, read-out: solubility in water): 1370 µg/mL (≈ 2670 µM)
C=CC(=O)Nc1cccc(-n2c(=O)cnc3cnc(Nc4ccc(N5CCN(C)CC5)c(C)c4)nc32)c1 [Compound 5] | 2.4 | 0.6 | 0.006 | 0.82 | 122 (≈ 246 µM) | 
C=CC(=O)Nc1cccc(-n2c(=O)cnc3cnc(Nc4cc(C)c(N5CCN(C)CC5)cc4OC)nc32)c1 [Compound 6, N-(3-(2-4-((2-methoxy-5-methyl-4-(4-methyl-1-piperazinyl)phenyl)amino)-7-oxo-8(7H)-pteridinyl)phenyl)acrylamide] | 106 | 14.8 | 0.46 | 1.69 | 51.8 (≈ 98.4 µM) | 
C=CC(=O)Nc1cccc(-n2c(=O)cnc3cnc(Nc4ccc(N5CCN(C(C)=O)CC5)cc4OC)nc32)c1 [Compound 7, N-(3-(2-((4-(4-acetyl-1-piperazinyl)-2-methoxyphenyl)amino)-7-oxo-8(7H)-pteridinyl)phenyl)acrylamide] | 45.2 | 9.5 | 0.197 | 20.5 | < 25 | 
C=CC(=O)Nc1cccc(-n2c(=O)cnc3cnc(Nc4ccc(CCN5CCN(C)CC5)cc4)nc32)c1 [Compound 8, N-(3-(2-((4-(2-(4-methyl-1-piperazinyl)ethyl)phenyl)amino)-7-oxo-8(7H)-pteridinyl)phenyl)acrylamide] | 5.7 | 2.1 | 0.09 | 0.97 | 280 (≈ 549 µM) | 
C=CC(=O)Nc1cccc(-n2c(=O)cnc3cnc(Nc4ccc(N5CCN(C)CC5)cc4OCCOC)nc32)c1 [Compound 10, N-(3-(2-((2-(methoxyethoxy)-4-(4-methyl-1-piperazinyl)phenyl)amino)-7-oxo-8(7H)-pteridinyl)phenyl)acrylamide] | 93.7 | 191 | 2.6 | 7.53 | 399 (≈ 716 µM) | 
C=CC(=O)Nc1cccc(-n2c(=O)cnc3cnc(Nc4ccc(N5CCN(CCO)CC5)cc4OC)nc32)c1 [Compound 11, N-(3-(2-((4-(4-(2-hydroxyethyl)-1-piperazinyl)-2-methoxyphenyl)amino)-7-oxo-8 (7H)-pteridinyl)phenyl)acrylamide] | 2.2 | 7.3 | 0.2 | 8.09 | 48.6 (≈ 89.6 µM) | 
C=CC(=O)Nc1cccc(-n2c(=O)cnc3cnc(Nc4ccc(N5CCC(N(C)C)CC5)cc4OC)nc32)c1 [Compound 12] | 3.5 | 6.2 | 0.006 | 2.52 | 369 (≈ 683 µM) | 
C=CC(=O)N1CCC(n2c(=O)cnc3cnc(Nc4ccc(N5CCN(C)CC5)cc4OC)nc32)CC1 [Compound 15, 8-(1-acryloyl-4-piperidinyl)-2-((2-methoxy-4-(4-methyl-1-piperazinyl)phenyl)amino)-7(8H)-pteridinone] | 2300 | 2250 |  |  | 514 (≈ 1020 µM) | 
C=CC(=O)N1CCCC(n2c(=O)c(-c3ccccc3)nc3cnc(Nc4ccc(N5CCN(C)CC5)cc4OC)nc32)C1 (centres unmarked) [Compound 58, 8-(1-acryloyl-3-piperidinyl)-2-((2-methoxy-4-(4-methyl-1-piperazinyl)phenyl)amino)-6-phenyl-7(8H)pteridinone] |  |  |  |  | < 10 | 
